Article PMC5157691 (Research and reports in biochemistry, 2016)
“Also recorded” adds a separate entry of the source. Where two headings read alike, the source gives them in different places. Ends that are not written are not given here.

Columns and labels:
[1] = tested on: human peripheral blood monocytes, neutrophils and T cells; conditions: cited from earlier work
[2] = tested on: peritoneal mouse macrophages; conditions: LL-37 10 μg/ml, 1 μm beads, beads:cells 10:1, 30 min at 37 °C
[3] = tested on: macrophages; conditions: pretreatment of macrophages with LL-37; cited from earlier work
[4] = tested on: macrophages; assay: Phagocytosis of bacteria by macrophages; format: cell-based
[5] = tested on: monocyte and macrophages; conditions: cited from earlier work
[6] = tested on: Mac-1-HEK293 cells; assay: Spreading of Mac-1-HEK293 cells on LL-37; format: cell-based, human; conditions: slides coated with LL-37, 30 min at 37 °C
[7] = tested on: Salmonella; assay: Binding density of 125I-LL-37-GY on Salmonella; conditions: 5 μg/ml 125I-LL-37-GY, 20 min at 22 °C
[8] = tested on: Human neutrophils; conditions: cited from earlier work
[9] = tested on: adherent IC-21 macrophages; conditions: LL-37 5 μg/ml, E. coli, 60 min at 37 °C
[10] = tested on: IC-21 macrophages; assay: Adhesion of IC-21 macrophages to immobilized peptide; format: cell-based, murine; conditions: in words; Fig. 4A shown for K18-37
[11] = tested on: Human neutrophils; conditions: cited from earlier work; remark: listed apart in the source
[12] = tested on: wild-type HEK293 cells; assay: Adhesion of wild-type HEK293 cells to immobilized LL-37; format: cell-based, human
[13] = tested on: IC-21 macrophages; conditions: LL-37 10 μg/ml, 1 μm beads, beads:cells 10:1, 30 min at 37 °C
[14] = tested on: adherent murine peritoneal macrophages; assay: Phagocytosis of E. coli and S. aureus by adherent murine peritoneal macrophages; format: cell-based; conditions: LL-37 5 μg/ml, 60 min at 37 °C
[15] = tested on: human THP-1 cells; conditions: LL-37 10 μg/ml, 1 μm beads, beads:cells 10:1, 30 min at 37 °C
[16] = tested on: Mac-1-deficient macrophages; assay: Phagocytosis of latex beads by Mac-1-deficient peritoneal macrophages; format: cell-based, mouse; conditions: LL-37-coated beads, 30 min at 37 °C
[17] = tested on: U937 cells; assay: Adhesion of U937 monocytic cells to immobilized LL-37; format: cell-based, human; conditions: data not shown
[18] = tested on: αMI-domain; conditions: cited from earlier work
[19] = tested on: mammalian cells; conditions: LL-37 10 μg/ml; data not shown
[20] = tested on: rodents; conditions: LL-37 injection; cited from earlier work
[21] = tested on: bacteria; conditions: bacterial killing in physiologically relevant buffers; cited from earlier work
[22] = tested on: leukocytes; conditions: soluble LL-37; cited from earlier work
[23] = tested on: primary human monocytes; conditions: compared to uncoated beads; cited from earlier work
[24] = tested on: murine macrophages; conditions: opsonization with LL-37; cited from earlier work
[25] = tested on: αMI-domain; conditions: surface plasmon resonance and biolayer interferometry; cited from earlier work
[26] = tested on: neutrophils; conditions: cited from earlier work
[27] = tested on: Mac-1-HEK293 cells; assay: Adhesion of Mac-1-HEK293 cells to immobilized peptide; format: cell-based, human
[28] = tested on: wild-type HEK293 cells; assay: Spreading of wild-type HEK293 cells on LL-37; format: cell-based, human; conditions: 30 min at 37 °C
[29] = tested on: adherent IC-21 macrophages; conditions: LL-37 5 μg/ml, S. aureus, 60 min at 37 °C
[30] = tested on: wild-type macrophages; assay: Phagocytosis of latex beads by wild-type peritoneal macrophages; format: cell-based, mouse
[31] = tested on: Mac-1-HEK293 cells; format: cell-based, human
[32] = tested on: Mac-1; conditions: cited from earlier work
[33] = tested on: wild-type HEK293 cells; assay: Inhibition of wild-type HEK293 cell adhesion to immobilized LL-37; format: cell-based, human; conditions: heparin 20 μg/ml, all coating concentrations of LL-37
[34] = tested on: IC-21 macrophages; assay: Inhibition of IC-21 macrophage adhesion to immobilized K18-37; format: cell-based, murine; conditions: K18-37 coating 0.5 μg/ml; heparin 20 μg/ml; mean ± S.E. from 5-6 experiments
[35] = tested on: U937, IC-21 and erythrocytes; assay: Binding density of 125I-LL-37-GY on mammalian cells; conditions: 5 μg/ml 125I-LL-37-GY; U937, IC-21 and erythrocytes vs tested bacteria
[36] = Binding of 125I-LL-37-GY to latex beads; conditions: 10 μg/ml 125I-labeled LL-37-GY; preliminary experiments
[37] = tested on: Mac-1-HEK293 cells; assay: Inhibition of Mac-1-HEK293 cell adhesion to immobilized LL-37; format: cell-based, human

LLGDFFRKSKEKIGKEFKRIVQRIKDFLRNLVPRTES [LL-37]
chemotactic effect [1]: chemotactic effect | fold augmentation of bead uptake [2]: ~4.5 fold | bacterial phagocytosis [3]: augmented by pretreatment of macrophages | phagocytosis of bacteria ([4]; Gram-negative and Gram-positive bacteria coated with LL-37, abstract): significantly potentiated their phagocytosis | concentration found to enhance bacterial phagocytosis ([4]; summary in discussion): 1 to 5 µg/mL | induction of migration [5]: induces a potent migratory response of Mac-1-expressing monocytes and macrophages; also recorded: induced Mac-1-dependent migration of monocyte and macrophages | cell spreading [6]: spread in a concentration-dependent manner with the formation of stress fibers | binding relative to E. coli (fold less) [7]: 1.8 fold | binding to Salmonella relative to mammalian cells (fold higher) [7]: ~ 17 fold | production of reactive oxygen species [8]: increase the production of reactive oxygen species | fold increase of phagocytosis [9]: ~ 17 fold | adhesion of IC-21 macrophages [10]: strongly adhered | apoptosis [11]: delayed apoptosis | adhesion of wild-type HEK293 cells ([12]; LL-37 coating 0-1.0 μg/ml): no adhesion | adhesion of wild-type HEK293 cells ([12]; LL-37 coating 1-4 μg/ml): supported adhesion of wild-type HEK293 cells; however, maximal adhesion did not reach the level attained with Mac-1-HEK293 cells | fold augmentation of bead uptake [13]: ~ 3.5 fold | phagocytosis [14]: increased phagocytosis | fold augmentation of bead uptake [15]: ~6 fold | enhancement of bead uptake [16]: failed to augment phagocytosis of beads | adhesion of U937 cells [17]: adhered to LL-37 in a concentration-dependent manner | αMI-domain binding [18]: binds the αMI-domain | calcein leakage relative to background of control untreated cells [19]: ~ 3 fold | protection from septic death [20]: protects rodents from septic death | minimal inhibitory concentration [21]: 30 to 100 µg/mL | concentration affecting membrane integrity of leukocytes [22]: > 50 µg/mL | uptake of LL-37-coated beads [23]: increased compared to uncoated beads | phagocytosis [24]: increased phagocytosis by murine macrophages | interaction with αMI-domain [25]: The interaction of the αMI-domain with LL-37 also was recently reported | neutrophil activation [26]: activates Mac-1 on the surface of neutrophils | adhesion (percent of added cells) ([27]; LL-37 coating 2 μg/ml, 30 min at 37 °C, calcein fluorescence, n=6): 52 ± 5% | coating concentration for saturable adhesion ([27]; Mac-1-HEK293, 30 min at 37 °C): 2 µg/mL | adhesion supported by peptide ([27]; in words): supported strong adhesion; also recorded: supported efficient adhesion | cell spreading ([28]; LL-37 coating 2 μg/ml): spread at higher LL-37 concentrations | cell spreading ([28]; LL-37 coating 0.2-1.0 μg/ml): remained round | fold increase of phagocytosis [29]: ~10 fold | enhancement of bead uptake ([30]; LL-37-coated beads, 30 min at 37 °C, three experiments in triplicate): ~ 5 times | enhancement of bead uptake ([30]; LL-37-coated vs untreated beads, abstract): several fold higher than that of untreated beads

DIDPKLKWD [reference compound]
inhibition of cell adhesion to fibrinogen ([31]; control peptide, fibrinogen coated at 2.5 μg/ml, 15 min at 22 °C): inactive

dynorphin A
phagocytosis [32]: enhance phagocytosis | phagocytosis ([32]; opsonization, through Mac-1): opsonizes bacteria and promotes phagocytosis through Mac-1

heparin
inhibition of adhesion of wild-type HEK293 cells [33]: strong inhibitor of adhesion | inhibition of adhesion to K18-37 [34]: 25 ± 13%

LL-37-GY: LL-37 containing two additional C-terminal residues Gly-Tyr (LLGDFFRKSKEKIGKEFKRIVQRIKDFLRNLVPRTESGY; also: 125I label, place not given here)
binding compared with bacteria [35]: bound significantly less | binding density on beads [36]: 10.6±1.3 fg/μm^2

KRIVQRIKDFLRNLVPRTES [K18-37]
IC50 for inhibition of cell adhesion to fibrinogen ([31]; 3 h): 6 µg/mL

FKRIVQRIKDFLR [FK-13, reference compound]
interaction with αMI-domain [25]: no interaction

B1: NIF: neutrophil inhibitory factor, a specific inhibitor of the αMI-domain-ligand interactions (protein)
chain: NEHNLRCPQNGTEMPGFNDSIRLQFLAMHNGYRSKLALGHISITEESESDDDDDFGFLPDFAPRASKMRYLEYDCEAEKSAYMSARNCSDSSSPPEGYDENKYIFENSNNISEAALKAMISWAKEAFNLNKTKEGEGVLYRSNHDISNFANLAWDAREKFGCAVVNCPLGEIDDETNHDGETYATTIHVVCHYPKINKTEGQPIYKVGTPCDDCSEYTKKADNTTSADPVCIPDDGVCFIGSKADYDSKEFYRFREL
inhibition of adhesion ([37]; LL-37 coating high (2 μg/ml or ≥2 μg/ml), inhibitor preincubated 15 min at 22 °C): but not high (≥2 μg/ml) concentrations | inhibition of cell adhesion to LL-37 (summary, words) ([37]; abstract, various Mac-1-expressing cells): partially inhibited
